Laboratory results as given in patent US20060135483A1, “Oxygen/nitrogen heterocycle inhibitors of tyrosine phosphatases” (priority 2004, published 2006).

Target: T1, PTP-1B (Homo sapiens, UniProt P18031)
T1 construct: PTP-1B (purified, 1 mg/mL) as a 1:250 dilution
T1 sequence (P18031 1-321 limits assumed): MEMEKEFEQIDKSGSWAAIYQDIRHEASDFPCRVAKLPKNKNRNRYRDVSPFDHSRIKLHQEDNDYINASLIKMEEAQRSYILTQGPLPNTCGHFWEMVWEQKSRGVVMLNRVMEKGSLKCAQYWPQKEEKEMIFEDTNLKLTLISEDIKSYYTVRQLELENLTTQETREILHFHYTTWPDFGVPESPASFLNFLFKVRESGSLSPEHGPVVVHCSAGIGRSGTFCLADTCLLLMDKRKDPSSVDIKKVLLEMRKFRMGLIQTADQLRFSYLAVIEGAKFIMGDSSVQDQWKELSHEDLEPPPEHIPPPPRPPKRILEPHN
Test: pNPP assay for tyrosine phosphatase inhibitory activity
Format: biochemical
Details: pNPP substrate 10 mM, 30° C., 10 minutes, absorbance at 405 nm
Procedure: The compounds provided herein are evaluated for biological activity as inhibitors of PTP-1B using, for example, a pNPP assay. Such an assay can be used to screen compounds for tyrosine phosphatase inhibitory activity as shown in Example 39.
A 5× stock of pNPP (p-nitrophenol phosphate) substrate is prepared as 50 mM pNPP in assay buffer. Various tyrosine phosphatase solutions can be prepared as follows: • PTP-1B (purified, 1 mg/mL) as a 1:250 dilution (to a final concentration of 4:g/mL); • TC-PTP (NEB, 1000 units in 100:L) as a 1:50 dilution (to a final concentration of 2 U/10:L (4:g/mL)); • CD45 (Calbiochem, 20:g, 400 units in 100: L) as a 1 :50 dilution (to a final concentration of 0.8 U/10:L (4:g/mL)); • LAR (NEB, 1000 units in 200:L) as a 1:75 dilution (to a final concentration of 0.7 U/10:L (4:g/mL)); and • PTP-β (UBI, #14-350, 10,000 units, 40:g/571:L) as a 1:17.5 dilution (to a final concentration of 10 U/10:L (4:g/mL));
The compound to be tested is prepared as 1:16.7 and 1:50 dilutions from stock in a total volume of 1 00:M DMSO to give final concentrations of 626 and 200:M. The reaction mixtures are prepared in a 96-well microtiter plate (on ice) as 55:L assay buffer, 5:L of the diluted compound (to a final concentration of 31.3 and 10:M), 20:L of the pNPP substrate solution (to a final concentration of 10 mM) and 20:L PTPase in assay buffer. The reactants are mixed well, the plate placed in a water bath at 30° C. and incubated for 10 minutes. The reaction is then terminated by adding 1 OO:L of 2M K2CO3 per well, and the absorbance is measured at 405 nm by conventional means.
Unless otherwise indicated, this assay was used to determine activity for the selected compounds whose activity is recorded in Table 1 and Table 2.

SMILES | IC50 (Table 2) | IC50 (Table 1)
CC(C)OC(=O)OC(C)OP(=O)(O)C(F)(F)c1ccc(CN(c2ccc(F)cc2)c2ncc(-c3ccc(S(C)(=O)=O)cc3)o2)cc1Br (stereo not shown) [{[2-Bromo-4-({(4-fluoro-phenyl)-[5-(4-methanesulfonyl-phenyl)-oxazol-2-yl]-amino}-methyl)-phenyl]-difluoro-methyl}-phosphonic acid mono-(1-isopropoxycarbonyloxy-ethyl) ester] | 10000 to 100000 nM | 
CCOP(=O)(OCC)C(F)(F)c1ccc(CN(c2ccc(Cl)c(Cl)c2)c2ncc(-c3ccc(Oc4ccc(C(=O)OC)cc4)cc3)o2)cc1Br [Example 7, 4-(4-{2-[{3-Bromo-4-[(diethoxy-phosphoryl)-difluoro-methyl]-benzyl}-(3,4-dichloro-phenyl)-amino]-oxazol-5-yl}-phenoxy)-benzoic acid methyl ester] |  | 10000 to 100000 nM
COC(=O)c1ccc(-c2cnc(N(Cc3ccc(C(F)(F)P(=O)(O)O)c(Br)c3)c3ccc(Cl)c(Cl)c3)o2)cc1 [Example 2, 4-{2-[[3-Bromo-4-(difluoro-phosphono-methyl)-benzyl]-(3,4-dichloro-phenyl)-amino]-oxazol-5-yl}-benzoic acid methyl ester] |  | 500 to 1000 nM
COP(=O)(O)C(F)(F)c1ccc(CN(c2ccc(Cl)c(Cl)c2)c2ncc(-c3ccc(S(C)(=O)=O)cc3)o2)cc1Br [{[2-Bromo-4-({(3,4-dichloro-phenyl)-[5-(4-methanesulfonyl-phenyl)-oxazol-2-yl]-amino}-methyl)-phenyl]-difluoro-methyl]-phosphonic acid monomethyl ester] |  | 10000 to 100000 nM
O=C(O)c1cccc(Oc2cccc(-c3nnc(N(Cc4ccc(C(F)(F)P(=O)(O)O)cc4)c4ccc(Cl)c(Cl)c4)o3)c2)c1 [Example 23, 3-[3-(5-{(3,4-Dichloro-phenyl)-[4-(difluoro-phosphono-methyl)-benzyl]-amino}-[1,3,4]oxadiazol-2-yl)-phenoxy]-benzoic acid] |  | 1000 to 10000 nM
CCCCCCCCCCCCCCCCOCCCOP(=O)(O)C(F)(F)c1ccc(CN(c2ccc(F)cc2)c2ncc(-c3ccc(S(C)(=O)=O)cc3)o2)cc1Br [{[2-Bromo-4-({(4-fluoro-phenyl)-[5-(4-methanesulfonyl-phenyl)-oxazol-2-yl]-amino}-methyl)-phenyl]-difluoro-methyl}-phosphonic acid mono-(3-hexadecyloxy-propyl) ester] | 1000 to 10000 nM | 
O=C(O)c1ccccc1-c1ccc(-c2cnc(N(Cc3ccc(C(F)(F)P(=O)(O)O)c(Br)c3)c3ccccc3)o2)cc1 [Example 27, 4′-{2-[[3-Bromo-4-(difluoro-phosphono-methyl)-benzyl]-phenyl-amino]-oxazol-5-yl}-biphenyl-2-carboxylic acid] | 100 to 500 nM | 
CS(=O)(=O)c1ccc(-c2cnc(N(Cc3ccc(C(F)(F)P(=O)(O)O)c(Br)c3)c3ccc(Cl)c(Cl)c3)o2)cc1 [Example 6, {[2-Bromo-4-({(3,4-dichloro-phenyl)-[5-(4-methanesulfonyl-phenyl)-oxazol-2-yl]-amino}-methyl)-phenyl]-difluoro-methyl}-phosphonic acid] |  | < 100 nM
O=C(O)c1ccccc1-c1ccc(-c2cnc(N(Cc3ccc(C(F)(F)P(=O)(O)O)c(Br)c3)c3ccc(Cl)c(Cl)c3)o2)cc1 [Example 17, 4′-{2-[[3-Bromo-4-(difluoro-phosphono-methyl)-benzyl]-(3,4-dichloro-phenyl)-amino]-oxazol-5-yl}-biphenyl-2-carboxylic acid] |  | 100 to 500 nM
O=C(O)c1ccccc1-c1ccc(-c2cnc(N(Cc3ccc(C(F)(F)P(=O)(O)O)c(Cl)c3)c3ccc(Cl)cc3)o2)cc1 [Example 30, 4′-{2-[[3-Chloro-4-(difluoro-phosphono-methyl)-benzyl]-(4-chlorophenyl)-amino]-oxazol-5-yl}-biphenyl-2-carboxylic acid] | 100 to 500 nM | 
CN(Cc1ccc(C(F)(F)P(=O)(O)O)c(Br)c1)c1ncc(-c2ccc(-c3ccccc3C(=O)O)cc2)o1 [Example 26, 4′-{2-[[3-Bromo-4-(difluoro-phosphono-methyl)-benzyl]-methyl-amino]-oxazol-5-yl}-biphenyl-2-carboxylic acid] | 500 to 1000 nM | 
O=C(O)c1ccc(-c2cnc(N(Cc3ccc(C(F)(F)P(=O)(O)O)c(Br)c3)c3ccc(Cl)c(Cl)c3)o2)cc1 [Example 3, 4-{2-[[3-Bromo-4-(difluoro-phosphono-methyl)-benzyl]-(3,4-dichloro-phenyl)-amino]-oxazol-5-yl}-benzoic acid] |  | < 100 nM
O=C(O)c1ccccc1-c1ccc(-c2cnc(N(Cc3ccc(C(F)(F)P(=O)(O)O)c(Br)c3)c3ccc(F)cc3)o2)cc1 [Example 28, 4′-{2-[[3-Bromo-4-(difluoro-phosphono-methyl)-benzyl]-(4-fluorophenyl)-amino]-oxazol-5-yl}-biphenyl-2-carboxylic acid] | 100 to 500 nM | 
O=C(O)c1ccccc1Oc1cccc(-c2cnc(N(Cc3ccc(C(F)(F)P(=O)(O)O)c(Br)c3)c3ccc(Cl)c(Cl)c3)o2)c1 [Example 18, 2-(3-{2-[[3-Bromo-4-(difluoro-phosphono-methyl)-benzyl]-(3,4-dichloro-phenyl)-amino]-oxazol-5-yl}-phenoxy)-benzoic acid] |  | 100 to 500 nM
COC(=O)c1ccc(Oc2ccc(-c3cnc(N(Cc4ccc(C(F)(F)P(=O)(O)O)c(Br)c4)c4ccc(Cl)c(Cl)c4)o3)cc2)cc1 [Example 10, 4-(4-{2-[[3-Bromo-4-(difluoro-phosphono-methyl)-benzyl]-(3,4-dichloro-phenyl)-amino]-oxazol-5-yl}-phenoxy)-benzoic acid methyl ester] |  | 1000 to 10000 nM
COC(=O)c1ccc(-c2cnc(N(Cc3ccc(C(F)(F)P(=O)(O)O)c(Br)c3)c3ccccc3)o2)cc1 [Example 4, 4-(2-{[3-Bromo-4-(difluoro-phosphono-methyl)-benzyl]-phenyl-amino}-oxazol-5-yl)-benzoic acid methyl ester] |  | 1000 to 10000 nM
O=P(O)(O)C(F)(F)c1ccc(CN(c2ccc(Cl)c(Cl)c2)c2ncc(-c3ccccc3)o2)cc1Br [Example 1, [(2-Bromo-4-{[(3,4-dichloro-phenyl)-(5-phenyl-oxazol-2-yl)-amino]-methyl}-phenyl)-difluoro-methyl]-phosphonic acid] |  | 1000 to 10000 nM
CC(C)(C)C(=O)OCOP(=O)(O)C(F)(F)c1ccc(CN(c2ccc(Cl)c(Cl)c2)c2ncc(-c3ccc(S(C)(=O)=O)cc3)o2)cc1Br [Example 11, 2,2-Dimethyl-propionic acid {[2-bromo-4-({(3,4-dichloro-phenyl)-[5-(4-methanesulfonyl-phenyl)-oxazol-2-yl]-amino}-methyl)-phenyl]-difluoro-methyl}-hydroxy-phosphinoyloxymethyl ester] |  | 10000 to 100000 nM
COC(=O)c1ccccc1-c1ccc(-c2cnc(N(Cc3ccc(C(F)(F)P(=O)(O)O)c(Br)c3)c3ccc(Cl)c(Cl)c3)o2)cc1 [Example 15, 4′-{2-[[3-Bromo-4-(difluoro-phosphono-methyl)-benzyl]-(3,4-dichloro-phenyl)-amino]-oxazol-5-yl}-biphenyl-2-carboxylic acid methyl ester] |  | 1000 to 10000 nM
CS(=O)(=O)c1ccc(-c2cnc(N(Cc3ccc(C(F)(F)P(=O)(O)O)c(Br)c3)c3ccc(F)cc3)o2)cc1 [Example 32, {[2-Bromo-4-({(4-fluoro-phenyl)-[5-(4-methanesulfonyl-phenyl)-oxazol-2-yl]-amino}-methyl)-phenyl]-difluoro-methyl}-phosphonic acid] | < 100 nM | 
O=P(O)(O)C(F)(F)c1ccc(CN(c2ccc(F)cc2)c2ncc(-c3ccc(-c4nn[nH]n4)cc3)o2)cc1Br [Example 38, ({2-Bromo-4-[((4-fluoro-phenyl)-{5-[4-(2H-tetrazol-5-yl)-phenyl]-oxazol-^2-yl}-amino)-methyl]-phenyl}-difluoro-methyl)-phosphonic acid] | < 100 nM | 
CS(=O)(=O)c1ccc(CN(Cc2ccc(C(F)(F)P(=O)(O)O)c(Br)c2)c2ncc(-c3ccc(S(C)(=O)=O)cc3)o2)cc1 [{[2-Bromo-4-({(4-methanesulfonyl-benzyl)-[5-(4-methanesulfonyl-phenyl)-oxazol-2-yl]-amino}-methyl)-phenyl]-difluoro-methyl}-phosphonic acid] | 500 to 1000 nM | 
